Test results as given in US5604231A, “Pharmaceutical compositions for prevention and treatment of ulcerative colitis” (priority 1995, dated 1997).

Columns and labels:
[1] = in words; literature; cited from earlier work
[2] = target: T1, muscle-like nicotinic receptors (TE671/RD) (Homo sapiens, UniProt P02708+P07510+P11230+Q07001); experiment: cell-based; details: for Emax: TE671/RD, read-out: Muscle Effect (% nicotine)
T1 construct: these cells express muscle-like nicotinic receptors; endogenous in cells; host or cells: TE671/RD (human embryonal rhabdomyosarcoma)

nicotinic receptors = experiment: Determination of binding of compounds to relevant receptor sites (inhibition of L-[3H]nicotine binding, brain membrane preparations); design: species or system rat (Sprague-Dawley)
Protocol: Rats (Sprague-Dawley) were maintained on a 12 hour light/dark cycle and were allowed free access to water and food supplied by Wayne Lab Blox, Madison, Wis. Animals used in the present studies weighed 200 to 250 g. Brain membrane preparations were obtained from brain tissue of either males or females.
Rats were killed by decapitation following anesthesia with 70% CO2. Brains were removed and placed on an ice-cold platform. […] The resulting homogenate was centrifuged at 18,000×g for 20 min. and the resulting pellet was resuspended in 20 volumes of water. After 60 min. incubation at 4° C., a new pellet was collected by centrifugation at 18,000×g for 20 min. After resuspension in 10 volumes of buffer, a new final pellet was again collected by centrifugation at 18,000×g for 20 min. Prior to each centrifugation step, the suspension was incubated at 37 ° C. for 5 min. to promote hydrolysis of endogenous acetylcholine. The final pellet was overlayered with buffer and stored at -70 ° C. On the day of the assay, that pellet was thawed, resuspended in buffer and centrifuged at 18,000×g for 20 min. The pellet obtained was resuspended in buffer to a final concentration of approximately 5 mg protein/mi. […]

[3] = in words; some patients; cited from earlier work
[4] = test system: IL-2; memory; neurotransmitter release in the CNS; details: in words; literature; cited from earlier work
[5] = in words; literature; cited from earlier work; remark: listed apart in the source

T1 sequence (P02708 21-457): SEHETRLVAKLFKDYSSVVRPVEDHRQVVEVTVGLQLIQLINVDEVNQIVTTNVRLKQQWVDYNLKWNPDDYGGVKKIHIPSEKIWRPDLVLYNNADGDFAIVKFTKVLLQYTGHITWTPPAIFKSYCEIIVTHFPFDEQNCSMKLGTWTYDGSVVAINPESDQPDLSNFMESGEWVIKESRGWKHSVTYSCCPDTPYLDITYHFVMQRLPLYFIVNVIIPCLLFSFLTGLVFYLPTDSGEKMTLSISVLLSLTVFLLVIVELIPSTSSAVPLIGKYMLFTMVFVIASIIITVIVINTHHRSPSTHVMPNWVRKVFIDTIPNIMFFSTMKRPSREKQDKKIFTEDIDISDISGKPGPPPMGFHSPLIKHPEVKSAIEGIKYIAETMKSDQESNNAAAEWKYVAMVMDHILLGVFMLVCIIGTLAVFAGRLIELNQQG
T1 sequence (Q07001 22-517): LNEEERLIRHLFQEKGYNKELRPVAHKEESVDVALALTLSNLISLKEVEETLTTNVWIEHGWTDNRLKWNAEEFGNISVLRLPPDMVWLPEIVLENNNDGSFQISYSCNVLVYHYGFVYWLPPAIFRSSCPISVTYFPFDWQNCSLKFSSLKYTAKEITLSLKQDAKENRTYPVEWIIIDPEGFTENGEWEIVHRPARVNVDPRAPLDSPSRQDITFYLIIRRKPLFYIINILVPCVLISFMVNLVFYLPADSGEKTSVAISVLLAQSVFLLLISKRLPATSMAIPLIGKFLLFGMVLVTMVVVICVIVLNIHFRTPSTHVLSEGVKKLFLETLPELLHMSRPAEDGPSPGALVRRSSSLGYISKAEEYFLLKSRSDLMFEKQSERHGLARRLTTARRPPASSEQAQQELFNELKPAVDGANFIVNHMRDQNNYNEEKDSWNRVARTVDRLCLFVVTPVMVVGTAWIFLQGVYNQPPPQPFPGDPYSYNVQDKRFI
T1 sequence (P07510 23-517): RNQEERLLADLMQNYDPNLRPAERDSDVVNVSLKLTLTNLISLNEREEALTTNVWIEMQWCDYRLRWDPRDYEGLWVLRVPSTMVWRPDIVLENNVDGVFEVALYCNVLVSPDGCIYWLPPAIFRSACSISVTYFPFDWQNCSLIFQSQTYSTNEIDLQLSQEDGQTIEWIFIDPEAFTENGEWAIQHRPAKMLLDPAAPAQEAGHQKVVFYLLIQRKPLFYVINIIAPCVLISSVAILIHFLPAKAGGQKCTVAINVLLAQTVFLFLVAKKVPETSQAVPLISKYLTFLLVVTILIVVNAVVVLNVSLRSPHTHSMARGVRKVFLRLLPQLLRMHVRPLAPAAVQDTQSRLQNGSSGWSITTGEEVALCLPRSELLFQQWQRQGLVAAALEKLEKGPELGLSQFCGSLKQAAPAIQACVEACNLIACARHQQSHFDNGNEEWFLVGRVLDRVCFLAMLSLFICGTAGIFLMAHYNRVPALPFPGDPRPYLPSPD
T1 sequence (P11230 24-501): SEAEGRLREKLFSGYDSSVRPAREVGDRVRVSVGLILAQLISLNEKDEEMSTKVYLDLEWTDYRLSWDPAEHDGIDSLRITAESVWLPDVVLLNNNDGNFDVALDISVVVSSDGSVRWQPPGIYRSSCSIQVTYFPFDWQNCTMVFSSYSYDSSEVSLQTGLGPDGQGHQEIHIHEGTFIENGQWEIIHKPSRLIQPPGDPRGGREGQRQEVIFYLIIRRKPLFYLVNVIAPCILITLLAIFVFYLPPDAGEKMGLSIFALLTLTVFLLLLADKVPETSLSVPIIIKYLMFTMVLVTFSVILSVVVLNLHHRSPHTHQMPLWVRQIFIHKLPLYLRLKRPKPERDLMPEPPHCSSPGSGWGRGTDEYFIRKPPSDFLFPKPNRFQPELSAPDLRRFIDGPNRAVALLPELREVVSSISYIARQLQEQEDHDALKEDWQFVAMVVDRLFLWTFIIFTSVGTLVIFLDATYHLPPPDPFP

Q: With CN1CCC[C@H]1c1cccnc1 [C-1, (S)-(-)-nicotine] as the compound, how does the “treatment of various CNS disorders” value [1] read?
A: The value was “positive effect towards the treatment of various CNS disorders”.

Q: For CNCC/C=C/c1cncnc1 [Sample No. 2, (E)-N-methyl-4-(5-pyrimidinyl)-3-butene-1-amine], which Emax [2] is on record?
A: Its Emax is 4%.

Q: Which Emax [2] does the source give for COc1cncc(/C=C/CCN)c1 [Sample No. 3, (E)-4-[3-(5-methoxypyridin)yl]-3-butene-1-amine monofumarate] here?
A: Its Emax is 0%.

Q: For CNCCC#Cc1cccnc1 [Sample No. 4, N-Methyl-4-(3-pyridinyl)-3-butyne-1-amine], which Ki (nicotinic receptors) is on record?
A: The Ki was 0.058 µM.

Q: And the Emax [2]?
A: Its Emax is 7%.

Q: Which Emax [2] does the source give for CNCC/C=C/c1ccc(C)nc1 [Sample No. 6, (E)-N-methyl-4-[3-(6-methylpyridin)yl]-3-butene-1-amine] here?
A: Its Emax is 2%.

Q: For CNCCCCc1cccnc1 [Sample No. 7, N-methyl-(3-pyridinyl)-butane-1-amine], which Emax [2] is on record?
A: The Emax was 0%.

Q: With CNCC/C=C/c1cccnc1 [Sample No. 8, (E)-metanicotine] as the compound, how does the “Muscle Effect (% nicotine)” value ([2]; te671/rd cells) read?
A: The value was 15 % nicotine.

Q: With Nc1ccc(O)c(C(=O)O)c1 [mesalamine] as the compound, how does the “effectiveness in treatment of acute UC” value [3] read?
A: The value was “effective to some degree in some patients”.

Q: For CN1CCCC1c1cccnc1 (centres unmarked) [nicotine], which effects upon memory [4] is on record?
A: The effects upon memory was “positive effects upon memory”.

Q: What about the “neurotransmitter release in the CNS” value [4] of the same compound?
A: Its value is “induce neurotransmitter release in the CNS”.

Q: And the “production of IL-2” value [4]?
A: Its value is “inhibit the production of IL-2”.

Q: What about the rectal blood flow [5] of the same compound?
A: The rectal blood flow was “Positive effects”.

Q: With O=C(O)c1cc(/N=N/c2ccc(S(=O)(=O)Nc3ccccn3)cc2)ccc1O [sulfasalazine] as the compound, how does the “effectiveness in treatment of acute UC” value [3] read?
A: Its value is “effective to some degree in some patients”.
